Assay results taken from paper PMC5944028, “Nonclinical and clinical pharmacological characterization of the potent and selective cathepsin K inhibitor MIV-711” (Journal of Translational Medicine, 2018).

Assay: Monkey plasma pharmacokinetics, single oral dose
Assay type: in vivo, cynomolgus monkeys (Macaca fascicularis)
Settings: for AUC0–t / AUCinf / Cmax / Cmax/dose / t½: geometric mean (CV%); for tmax: median (min–max)
Experimental: Eight cynomolgus monkeys (Macaca fascicularis) were used for measuring plasma levels of MIV-711 and CTX-I after a single dose. The animals were healthy young males, approximately 2–4 years old and weighing 3–4 kg. Experiments were performed at Covance Ltd (Harrogate, UK). The monkeys were used over an extended period of time (up to a year) and several cathepsin K inhibitors were evaluated during this time. At least 1 week was allowed for washout in between experiments. This was not believed to affect the results with MIV-711, and vehicle controls were run on a regular basis when appropriate. Each animal received at least one dose of MIV-711 and one dose of vehicle with at least 1 week of washout in between treatments.
In single dose experiments, animals were dosed with vehicle or MIV-711 (3–30 µmol/kg) via oral gavage at a dose volume of 4 mL/kg between 7:30 and 9:00 a.m. Blood samples were collected at baseline, 30 min, 1, 2, 4, 8, 12, 24 and 48 h after dose from the femoral vein and transferred into lithium heparin anticoagulant tubes. The samples were centrifuged and the two aliquots of the resultant plasma were frozen at − 70 °C. All samples were processed and stored within 30 min of collection. The aliquots were used to determine the MIV-711 concentration and CTX-I levels, respectively. [drawing 1]
The quantification of MIV-711 in monkey plasma was performed by taking 10–50 µL of plasma and mixing with 3 volumes of acetonitrile (10 s, Vibrofix). The sample was centrifuged (10 min, 20,000×g, 7 °C) and 5 µL of the supernatant was injected onto the liquid chromatography with tandem mass spectrometric detection (LC–MS/MS) system. The lowest concentration of the standard curves and the lower limit of quantification (LLOQ) was 1 nmol/L of MIV-711. The human plasma samples were prepared by protein precipitation for sample extraction followed by LC–MS/MS. The lowest concentration of the standard curves and the LLOQ was 4 nmol/L of MIV-711 using 25 µL of plasma.

## C#C[C@@H]1CN(C(=O)[C@H](CC(C)C)NC(=O)c2ccc(-c3nc(N4CCN(C)CC4)sc3F)cc2)[C@@H]2C(=O)CO[C@H]12 [MIV-711]
3 µmol/kg p.o. single dose
  AUC0–t: 0.400 (60) µmol/L × h
  AUCinf: 0.409 (62) µmol/L × h
  Cmax: 102 nM
  Cmax/dose: 0.034 (65)
  t½: 2.1 (16) h
  tmax: 2.0 (2.0–2.0) h
10 µmol/kg p.o. single dose
  AUC0–t: 0.881 (52) µmol/L × h
  AUCinf: 0.932 (46) µmol/L × h
  Cmax: 164 nM
  Cmax/dose: 0.016 (41)
  t½: 3.1 (52) h
  tmax: 2.0 (0.50–4.0) h
30 µmol/kg p.o. single dose
  AUC0–t: 6.21 (62) µmol/L × h
  AUCinf: 6.28 (62) µmol/L × h
  Cmax: 923 nM
  Cmax/dose: 0.031 (56)
  t½: 3.4 (30) h
  tmax: 2.0 (1.0–4.0) h
Highest dose group (30 µmol/kg p.o.)
  Plasma concentration at 24 h post-dose: approximately 10 nmol/L
Lowest dose group (3 µmol/kg p.o.), below LLOQ
  Plasma concentration at 24 h post-dose: < 1 nM
